Laboratory results: patent publication US7951530B2, “Cyclic maltosylmaltose, cyclic maltosymaltose-forming enzyme, their preparation and uses” (Kabushiki Kaisha Hayashibara Seibutsu Kagaku Kenkyujo, priority 2003, dated 2011)
Like-named read-outs stand apart in the source and are kept apart here.

Tests used:
[1] = Amino-carbonyl reaction with polypeptone; format: physicochemical; conditions: 5% (w/v) saccharide, 5% (w/v) polypeptone, 120° C., blank subtracted
Procedure: (§1) As a control, an aqueous solution containing maltose and polypeptone was prepared in the same manner using maltose except for the powdery hydrous crystalline CMM. Four milliliters each of the solution was put in a glass tube, sealed and then heated at 120° C. for 30, 60, or 90 min. After cooling the solutions, the degrees of coloring of the solutions were measured to estimate the degree of amino-carbonyl reaction. As a blank test, a solution containing polypeptone only was heated in the same manner. The degree of coloring was defined as an absorbance at 480 nm using a 1 cm-cell after subtracting the absorbance of the blank test.

[2] = Amino-carbonyl reaction with glycine; format: physicochemical; conditions: […] (w/v) saccharide, 0.5% (w/v) glycine, pH 8.0, 100° C.
Procedure: as §1, with “glycine” for “polypeptone”, “100°” for “120°”, “reaction.” for “reaction. As a blank test, a solution containing polypeptone only was heated in the same manner.”, “cm-cell.” for “cm-cell after subtracting the absorbance of the blank test.”

CMM-forming enzyme [3] = assay: Action on various saccharides (substrate specificity, TLC); format: biochemical, Arthrobacter globiformis M6; set-up: key: “−” means “Not changed”; “+” means “Spot of substrate is slightly decreased and other products are detected”; “++” means “Spot of substrate is markedly decreased and other products are detected”; “+++” means “Spot of substrate is virtually disappeared and other products are detected”; conditions: substrate 2% (w/v), one unit/g-substrate enzyme, 40° C., pH 6.0, 24 hours, TLC before and after reaction
Procedure: Substrate specificity of CMM-forming enzyme of the present invention was investigated using various saccharides as substrates. Substrate solutions were prepared by dissolving maltose, maltotriose, maltotetraose, maltopentaose, maltohexaose, maltoheptaose, neotrehalose, trehalose, kojibiose, nigerose, […] isomaltose, isomaltotriose, panose, isopanose, maltitol, maltotriitol, α-, β- or γ-cyclodextrin, amylose, soluble starch, glycogen, pullulan or dextran into water. Each substrate solution was admixed with acetate buffer (pH 6.0) and CaCl2 to give final concentrations of 20 mM and 1 mM, respectively. […] Substrate concentration was set to 2% (w/v) and followed by the enzyme reaction at 40° C. and pH 6.0 for 24 hours. Action and the specificity of the enzyme on these saccharides were confirmed by analyzing the reaction mixture before and after the reaction by TLC described in Experiment 1.

CMM-forming enzyme [4] = assay: Effects of metal ions on the enzyme activity; format: biochemical, Arthrobacter globiformis M6; conditions: for Effect on CMM-forming enzyme activity: 1 mM
CMM-forming enzyme [5] = assay: Formation of CMM from various substrates; format: biochemical, Arthrobacter globiformis M6; conditions: substrate 1.0% (w/v), one unit/g-substrate enzyme, 40° C., pH 6.0, 48 hours, HPLC
Procedure: Formation of CMM by the action of CMM-forming enzyme of the present invention was investigated using various saccharides as substrates. Maltotriose, maltotetraose, maltopentaose, maltohexaose, amylose, soluble starch, “[…] #100”, a partial starch hydrolyzate commercialized by Matsutani Chemical Industries Co., Ltd., Hyogo, Japan, or glycogen from corn, commercialized by Q.P. Corporation, Tokyo, Japan, was prepared into a solution. […] The reaction was stopped by heating the reaction mixture at 100° C. for 10 min. After treating the reaction mixture with α-glucosidase and glucoamylase by the same manner in Experiment 1, the amount of CMM was determined by HPLC and CMM content of the reaction mixture was measured.

[6] = CMM-forming enzyme activity in the presence of 1 mM metal salt, None = 100

Compound: OC[C@H]1O[C@H](O[C@H]2[C@H](O)[C@@H](O)C(O)O[C@@H]2CO)[C@H](O)[C@@H](O)[C@@H]1O (mixture of isomers) [Maltose, maltose]
- Degree of coloring (A480 nm) ([1]; heating time 0 min): 0.00
- Degree of coloring (A480 nm) ([1]; heating time 30 min): 0.10
- Degree of coloring (A480 nm) ([1]; heating time 60 min): 0.30
- Degree of coloring (A480 nm) ([1]; heating time 90 min): 0.62
- Degree of coloring (A480 nm) ([2]; heating time 0 min): 0.00
- Degree of coloring (A480 nm) ([2]; heating time 30 min): 0.02
- Degree of coloring (A480 nm) ([2]; heating time 60 min): 0.08
- Degree of coloring (A480 nm) ([2]; heating time 90 min): 0.17
- Action (CMM-forming enzyme [3]): −

Compound: [Cl][Al]([Cl])[Cl] [AlCl3]
- Effect on CMM-forming enzyme activity (CMM-forming enzyme [4]): inhibited
- Relative activity (%) (CMM-forming enzyme [4]; [6]): 13%

Compound: [Ba+2].[Cl-].[Cl-] [BaCl2]
- Relative activity (%) (CMM-forming enzyme [4]; [6]): 90%

Compound: [Ca+2].[Cl-].[Cl-] [CaCl2]
- Relative activity (%) (CMM-forming enzyme [4]; [6]): 99%

Compound: [Cl-].[Cl-].[Co+2] [CoCl2]
- Relative activity (%) (CMM-forming enzyme [4]): 95%

Compound: [Cl][Cu][Cl] [CuCl2]
- Effect on CMM-forming enzyme activity (CMM-forming enzyme [4]): remarkably inhibited
- Relative activity (%) (CMM-forming enzyme [4]; [6]): 1%

Compound: [Cl][Fe][Cl] [FeCl2]
- Relative activity (%) (CMM-forming enzyme [4]; [6]): 95%

Compound: [Cl][Fe]([Cl])[Cl] [FeCl3]
- Effect on CMM-forming enzyme activity (CMM-forming enzyme [4]): inhibited
- Relative activity (%) (CMM-forming enzyme [4]; [6]): 32%

Compound: [Cl][Hg][Cl] [HgCl2]
- Effect on CMM-forming enzyme activity (CMM-forming enzyme [4]): remarkably inhibited
- Relative activity (%) (CMM-forming enzyme [4]; [6]): 2%

Compound: OC[C@H]1O[C@H](OC[C@H]2OC(O)[C@H](O)[C@@H](O)[C@@H]2O)[C@H](O)[C@@H](O)[C@@H]1O (some centres unmarked) [Isomaltose, isomaltose]
- Action (CMM-forming enzyme [3]): −

Compound: OC[C@H]1O[C@H](OC[C@H]2O[C@H](OC[C@H]3OC(O)[C@H](O)[C@@H](O)[C@@H]3O)[C@H](O)[C@@H](O)[C@@H]2O)[C@H](O)[C@@H](O)[C@@H]1O (some centres unmarked) [Isomaltotriose, isomaltotriose]
- Action (CMM-forming enzyme [3]): −

Compound: OC[C@H]1O[C@H](O[C@H]2[C@H](O)[C@@H](O)[C@@H](OC[C@H]3OC(O)[C@H](O)[C@@H](O)[C@@H]3O)O[C@@H]2CO)[C@H](O)[C@@H](O)[C@@H]1O (some centres unmarked) [Isopanose, isopanose]
- Action (CMM-forming enzyme [3]): −

Compound: OC[C@H]1O[C@H](O[C@H]2C(O)O[C@H](CO)[C@@H](O)[C@@H]2O)[C@H](O)[C@@H](O)[C@@H]1O (some centres unmarked) [Kojibiose, kojibiose]
- Action (CMM-forming enzyme [3]): −

Compound: OC[C@H]1O[C@H](O[C@H]2[C@H](O)[C@@H](O)[C@@H](O[C@H]3[C@H](O)[C@@H](O)[C@@H](O[C@H]4[C@H](O)[C@@H](O)C(O)O[C@@H]4CO)O[C@@H]3CO)O[C@@H]2CO)[C@H](O)[C@@H](O)[C@@H]1O (some centres unmarked) [Maltotetraose, maltotetraose]
- CMM content (%) (CMM-forming enzyme [5]): 27.3%
- Action (CMM-forming enzyme [3]): +++

Compound: OC[C@@H](O)[C@@H](O[C@H]1O[C@H](CO)[C@@H](O[C@H]2O[C@H](CO)[C@@H](O)[C@H](O)[C@H]2O)[C@H](O)[C@H]1O)[C@H](O)[C@@H](O)CO [Maltotriitol, maltotriitol]
- Action (CMM-forming enzyme [3]): −

Compound: [Cl-].[Cl-].[Mg+2] [MgCl2]
- Relative activity (%) (CMM-forming enzyme [4]; [6]): 98%

Compound: [Cl][Mn][Cl] [MnCl2]
- Relative activity (%) (CMM-forming enzyme [4]; [6]): 97%

Compound: OC[C@H]1O[C@@H](O[C@H]2O[C@H](CO)[C@@H](O)[C@H](O)[C@H]2O)[C@H](O)[C@@H](O)[C@@H]1O [Neotrehalose, neotrehalose]
- Action (CMM-forming enzyme [3]): −

Compound: [Cl][Ni][Cl] [NiCl2]
- Relative activity (%) (CMM-forming enzyme [4]; [6]): 90%

Compound: OC[C@H]1O[C@H](O[C@H]2[C@H](O)[C@@H](CO)OC(O)[C@@H]2O)[C@H](O)[C@@H](O)[C@@H]1O (some centres unmarked) [Nigerose, nigerose]
- Action (CMM-forming enzyme [3]): −

Compound: OC[C@H]1O[C@H](OC[C@H]2O[C@H](O[C@H]3[C@H](O)[C@@H](O)C(O)O[C@@H]3CO)[C@H](O)[C@@H](O)[C@@H]2O)[C@H](O)[C@@H](O)[C@@H]1O (some centres unmarked) [Panose, panose]
- Action (CMM-forming enzyme [3]): −

Compound: [Cl][Pb][Cl] [PbCl2]
- Effect on CMM-forming enzyme activity (CMM-forming enzyme [4]): inhibited
- Relative activity (%) (CMM-forming enzyme [4]; [6]): 36%

Compound: [Cl-].[Cl-].[Sr+2] [SrCl2]
- Relative activity (%) (CMM-forming enzyme [4]; [6]): 90%

Compound: OC[C@H]1O[C@H](O[C@H]2O[C@H](CO)[C@@H](O)[C@H](O)[C@H]2O)[C@H](O)[C@@H](O)[C@@H]1O [Trehalose, trehalose]
- Action (CMM-forming enzyme [3]): −

Compound: [Cl-].[Cl-].[Zn+2] [ZnCl2]
- Relative activity (%) (CMM-forming enzyme [4]; [6]): 73%

Compound: OC[C@H]1O[C@@H]2O[C@H]3[C@H](O)[C@@H](O)[C@@H](O[C@H]4[C@H](O)[C@@H](O)[C@@H](O[C@H]5[C@H](O)[C@@H](O)[C@@H](O[C@H]6[C@H](O)[C@@H](O)[C@@H](O[C@H]7[C@H](O)[C@@H](O)[C@@H](O[C@H]1[C@H](O)[C@H]2O)O[C@@H]7CO)O[C@@H]6CO)O[C@@H]5CO)O[C@@H]4CO)O[C@@H]3CO [α-Cyclodextrin, α-cyclodextrin]
- Action (CMM-forming enzyme [3]): −

Compound: OC[C@H]1O[C@@H]2O[C@H]3[C@H](O)[C@@H](O)[C@@H](O[C@H]4[C@H](O)[C@@H](O)[C@@H](O[C@H]5[C@H](O)[C@@H](O)[C@@H](O[C@H]6[C@H](O)[C@@H](O)[C@@H](O[C@H]7[C@H](O)[C@@H](O)[C@@H](O[C@H]8[C@H](O)[C@@H](O)[C@@H](O[C@H]1[C@H](O)[C@H]2O)O[C@@H]8CO)O[C@@H]7CO)O[C@@H]6CO)O[C@@H]5CO)O[C@@H]4CO)O[C@@H]3CO [β-Cyclodextrin, β-cyclodextrin]
- Action (CMM-forming enzyme [3]): −

Compound: OC[C@H]1O[C@@H]2O[C@H]3[C@H](O)[C@@H](O)[C@@H](O[C@H]4[C@H](O)[C@@H](O)[C@@H](O[C@H]5[C@H](O)[C@@H](O)[C@@H](O[C@H]6[C@H](O)[C@@H](O)[C@@H](O[C@H]7[C@H](O)[C@@H](O)[C@@H](O[C@H]8[C@H](O)[C@@H](O)[C@@H](O[C@H]9[C@H](O)[C@@H](O)[C@@H](O[C@H]1[C@H](O)[C@H]2O)O[C@@H]9CO)O[C@@H]8CO)O[C@@H]7CO)O[C@@H]6CO)O[C@@H]5CO)O[C@@H]4CO)O[C@@H]3CO [γ-Cyclodextrin, γ-cyclodextrin]
- Action (CMM-forming enzyme [3]): −

Compound: amylose
- CMM content (%) (CMM-forming enzyme [5]): 41.8%
- CMM content (%) (CMM-forming enzyme [5]; listed as amylose): about 42%
- Action (CMM-forming enzyme [3]): +++

Compound: dextran
- Action (CMM-forming enzyme [3]): −

Compound: glycogen
- CMM content (%) (CMM-forming enzyme [5]): 29.5%
- CMM content (%) (CMM-forming enzyme [5]; listed as glycogen): about 30%
- Action (CMM-forming enzyme [3]): ++

Compound: maltoheptaose
- CMM content (%) (CMM-forming enzyme [5]): 36.6%
- Action (CMM-forming enzyme [3]): +++

Compound: maltohexaose
- CMM content (%) (CMM-forming enzyme [5]): 41.6%
- Action (CMM-forming enzyme [3]): +++

Compound: maltopentaose
- CMM content (%) (CMM-forming enzyme [5]): 24.4%
- Action (CMM-forming enzyme [3]): +++

Compound: maltotriose
- CMM content (%) (CMM-forming enzyme [5]): 0.6%
- CMM content (%) (CMM-forming enzyme [5]; listed as maltotriose): about 0.6%
- Action (CMM-forming enzyme [3]): +

Compound: pullulan
- Action (CMM-forming enzyme [3]): −

Compound: soluble starch
- CMM content (%) (CMM-forming enzyme [5]): 31.4%
- CMM content (%) (CMM-forming enzyme [5]; listed as soluble starch): about 30%
- Action (CMM-forming enzyme [3]): +++
